This is an account of results in publication PMC2903443 (Journal of medicinal chemistry, 2010).

Read-outs that look alike come from different tables or passages of the source.

As usually defined, the Ki is a measure of affinity in units of concentration, obtained from inhibition or displacement. As a reminder, the Km is the concentration of substrate that gives half-maximal velocity.

The target of test [1] is T1, mtIMPDH (Mycobacterium tuberculosis, UniProt P9WKI7). Description: biochemical. In kind it is biochemical.
The target in another test is hIMPDH1 (Homo sapiens, UniProt P20839). The test can be described thus: IMPDH inhibition assay. In kind it is biochemical. The note with it: hIMPDHs, isoform not specified; relative to compound 6.
For test [2], the target named is T1, mtIMPDH. In kind it is biochemical.
A further test deals with human-type 2 IMPDH. The conditions noted are these: cited from earlier work.
A further test has as its system human-type 1 IMPDH. The note with it: cited from earlier work.
Test [3] addresses T1, mtIMPDH. Description: biochemical.

T1 sequence (P9WKI7 whole entry, looked up, canonical isoform): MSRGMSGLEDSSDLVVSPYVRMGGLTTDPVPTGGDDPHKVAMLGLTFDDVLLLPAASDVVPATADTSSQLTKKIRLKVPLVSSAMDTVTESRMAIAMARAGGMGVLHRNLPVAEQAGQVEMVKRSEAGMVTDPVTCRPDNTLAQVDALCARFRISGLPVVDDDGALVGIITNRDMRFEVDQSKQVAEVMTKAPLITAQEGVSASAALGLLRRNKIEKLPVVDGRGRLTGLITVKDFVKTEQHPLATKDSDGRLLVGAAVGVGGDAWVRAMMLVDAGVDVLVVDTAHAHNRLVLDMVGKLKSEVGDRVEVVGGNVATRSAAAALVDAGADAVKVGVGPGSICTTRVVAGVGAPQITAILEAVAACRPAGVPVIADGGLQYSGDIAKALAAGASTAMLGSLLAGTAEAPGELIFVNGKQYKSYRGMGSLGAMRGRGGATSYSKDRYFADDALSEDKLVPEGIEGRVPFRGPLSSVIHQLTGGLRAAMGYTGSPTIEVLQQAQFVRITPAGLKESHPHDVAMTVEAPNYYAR
hIMPDH1, sequence (P20839 whole entry, canonical isoform): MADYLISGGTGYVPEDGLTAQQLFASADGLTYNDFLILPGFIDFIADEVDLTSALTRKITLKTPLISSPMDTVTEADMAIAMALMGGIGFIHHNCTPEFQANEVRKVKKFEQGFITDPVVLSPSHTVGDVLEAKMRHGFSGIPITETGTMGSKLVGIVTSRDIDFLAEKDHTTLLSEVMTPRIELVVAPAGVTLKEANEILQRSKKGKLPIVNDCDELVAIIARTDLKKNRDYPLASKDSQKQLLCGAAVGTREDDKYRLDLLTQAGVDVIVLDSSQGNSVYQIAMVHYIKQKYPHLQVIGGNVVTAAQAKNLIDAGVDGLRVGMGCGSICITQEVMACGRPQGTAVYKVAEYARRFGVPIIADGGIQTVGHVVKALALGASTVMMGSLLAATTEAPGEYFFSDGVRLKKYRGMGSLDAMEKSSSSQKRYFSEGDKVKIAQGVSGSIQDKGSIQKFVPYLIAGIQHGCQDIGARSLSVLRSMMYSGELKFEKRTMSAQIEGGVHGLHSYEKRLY

The compound `COc1c(C)c2c(c(O)c1C/C=C(\C)CCC(=O)O)C(=O)OC2` [Compound 1, Mycophenolic acid] displayed a Hill-slope at mtIMPDH [1] (fit of Ki^app against mtIMPDH) of 1.5. In addition, the “Ki^app value against mtIMPDH with detergent” value at mtIMPDH [1] (reaction buffer containing 0.1% Trition X-100, compared with buffer without) was “not affected”.
With `COc1c(C)c2c(c(O)c1CCOP(=O)(O)CP(=O)(O)OC[C@H]1O[C@@H](n3cnc4c(N)nc(-c5ccccc5)nc43)[C@H](O)[C@@H]1O)C(=O)OC2` [Compound 3b], at mtIMPDH [1], the Ki was more than 100 µM.
On the same count and under the same terms, in the case of `COc1c(C)c2c(c(O)c1C/C=C(\C)COP(=O)(O)CP(=O)(O)OC[C@H]1O[C@@H](n3cnc4c(N)ncnc43)[C@H](O)[C@@H]1O)C(=O)OC2` [Compound 4] it was more than 100 µM.
The same measure, in the same setting: in the case of `COc1c(C)c2c(c(O)c1CCNS(=O)(=O)CS(=O)(=O)NC[C@H]1O[C@@H](n3cnc4c(N)nc(-c5ccccc5)nc43)[C@H](O)[C@@H]1O)C(=O)OC2` [Compound 5b] it was more than 100 µM.
On the same count and under the same terms, in the case of `C#Cc1nc(N)c2ncn([C@@H]3O[C@H](CNS(=O)(=O)CS(=O)(=O)NCCc4c(O)c5c(c(C)c4OC)COC5=O)[C@@H](O)[C@H]3O)c2n1` [Compound 5c] it was more than 100 µM; in that of `CCc1nc(N)c2ncn([C@@H]3O[C@H](CNS(=O)(=O)CS(=O)(=O)NCCc4c(O)c5c(c(C)c4OC)COC5=O)[C@@H](O)[C@H]3O)c2n1` [Compound 5d], more than 100 µM; in that of `COc1c(C)c2c(c(O)c1CCNCc1cn(C[C@H]3O[C@@H](n4cnc5c(N)ncnc54)[C@H](O)[C@@H]3O)nn1)C(=O)OC2` [Compound 6, 6-(2-(((1-(5′-Deoxy-adenosin-5′-yl)-1H-1,2,3-triazol-4-yl)methyl)amino)ethyl)-7-hydroxy-5-methoxy-4-methylisobenzofuran-1(3H)-one], more than 100 µM.
Regarding `COc1c(C)c2c(c(O)c1CCn1cc(COC[C@H]3O[C@@H](n4cnc5c(N)ncnc54)[C@H](O)[C@@H]3O)nn1)C(=O)OC2` [Compound 8, 6-(2-(4-(Adenosin-5′-yl)methyl-1H-1,2,3-triazol-1-yl)ethyl)-7-hydroxy-5-methoxy-4-methylisobenzofuran-1(3H)-one], on hIMPDH1, the “fold more potent than compound 6” value came to 10 fold. The compound further returned a Ki on mtIMPDH [1] of more than 100 µM.
Turning to `COc1c(C)c2c(c(O)c1C/C=C(\C)Cn1cc(COC[C@H]3O[C@@H](n4cnc5c(N)ncnc54)[C@H](O)[C@@H]3O)nn1)C(=O)OC2` [Compound 9, 6-((E)-4-(4-(Adenosin-5′-yl)methyl-1H-1,2,3-triazol-1-yl)-3-methylbut-2-en-1-yl)-7-hydroxy-5-methoxy-4-methylisobenzofuran-1(3H)-one], the “uncompetitive Kiu vs. IMP” value at mtIMPDH [2] (IMP varied 1.4 μM to 1 mM, NAD fixed 0.5 mM, mtIMPDH […]) was determined as 2.2 ± 0.1 µM. At mtIMPDH [2] (NAD varied 94 μM to 3 mM, IMP fixed 100 μM, mtIMPDH […]), the “uncompetitive Kiu vs. NAD” value was 1.5 ± 0.1 µM. The mode of inhibition entry on mtIMPDH [2] (with respect to both NAD and IMP) is “uncompetitive”. Also, the “activity against mtIMPDH (in words)” value on mtIMPDH [1] is given as “significant inhibition”.
Take `NC(=O)c1ccc[n+]([C@@H]2O[C@H](COP(=O)([O-])OP(=O)(O)OC[C@H]3O[C@@H](n4cnc5c(N)ncnc54)[C@H](O)[C@@H]3O)[C@@H](O)[C@H]2O)c1` [NAD, nicotinamide adenine dinucleotide]: the Km in the test with human-type 2 IMPDH (read-out: KM (NAD), ref [27]) is 6 ± 1 µM; with human-type 1 IMPDH (read-out: KM (NAD), ref [28]), 70 ± 10 µM. The Ki on human-type 2 IMPDH (read-out: Ki (NAD), ref [27]) was 590 ± 20 µM; on human-type 1 IMPDH (read-out: Ki (NAD), ref [28]) it was 2000 ± 600 µM; on mtIMPDH [3] it was 5000 ± 600 µM.
